Results published in paper PMC9249808, “A novel lipidic peptide with potential to promote balanced effector-regulatory T cell responses” (Scientific Reports, 2022).

Experiments:
[1] = tested on: CD4+ T cells within T cell cultures; test: Flow cytometry of CD4+ T cells within isolated CD3+ T cell cultures (anti-CD3/anti-CD28); type: cell-based, human; settings: anti-CD3/anti-CD28, 72 h, MFI, Fig. 1b (IK14004), Fig. 1e (IK14000)
Procedure: CD3^+ T cells were isolated from PBMCs by negative selection using immune-magnetic separation (Stem cell kits), resuspended in complete medium as used for PBMCs at 0.5 × 10^6/mL and plated at a density of 5 × 10^4 per well (100 µL) in 96-well, flat bottom culture plates. CD4^+ and CD8^+ T cell populations were isolated by immunomagnetic separation and resuspended in RPMI-10 at 0.5 × 10^6/mL with a plating density of 0.5 × 10^5 per well. Either the lipidic peptide, IK14004, or IK14000 ([…]) was added to wells at a final volume of 50 µL per well, together with anti-CD3 anti-CD28 coated Dynabeads (ThermoFisher) at a 4:1 cell:bead ratio (1.25 × 10^4/well, 50 µL volume) and cells cultured for 72 h at 37 °C and 5% CO2. […]
For flow cytometry and ELISA experiments, data from IK14004 and vehicle groups were analysed using parametric statistical procedures. […]

[2] = tested on: Lck; test: Kinase profiling, Lck; type: biochemical; settings: Eurofins KinaseProfiler, [γ-33P-ATP] scintillation, 0.003-10 uM, 2% DMSO, no pre-incubation, Fig. 6c, 6e
Procedure: Non-cell-based kinase profiling assays were performed by Eurofins (France). All compounds were prepared to 50 × final assay concentration in 100% DMSO. This working stock of the compound was added to assay wells as the first component in the reaction, followed by the remaining components as detailed in the specific assay protocols below. In the standard KinaseProfiler service, there was no pre-incubation step between the compound and the kinase prior to initiation of the reaction. Control wells contained all components of the reaction, except the compound of interest; however, DMSO (at a final concentration of 2%) was included in these wells to control for solvent effects. […] The reference inhibitors for each kinase are indicated in the methods for each kinase assay. […] Kinase activities were assessed in the presence of compounds at a concentration range of 0.003 -10 uM and the following kinases were tested: c-Src, Lck, Jak1, Jak2, Tyk2, CaMKIV and HPK1 (MAP4K1). Reactions between IK14004, substrates and MgAcetate/[γ^33P-ATP] mixes for each respective kinase were stopped by the addition of phosphoric acid and reaction mixtures spotted on P30 filtermats for scintillation according to the detailed methods available from Eurofins. The activities of Lck and c-Src were also assessed in the presence of the unconjugated components of IK14004, i.e., […] (IK14000) and the dodecanoic acid moiety [(2)Adod]4 (IK00041) and a lipidic peptide containing substituted amino acid residues (IK14DE04).

Question: RSKAKNPLYR [IK14000] was tested. Which “CD25 expression in CD4+ T cells” value [1] did it give?
Answer: decrease in CD25 expression in CD4+ T cells at higher concentrations

Question: And the Lck activity [2]?
Answer: neither IK14000 nor IK00041 had an effect
